Assay results as given in patent US4221909A, “P-Acetamidobenzoic acid salts of 9-(hydroxyalkyl) purines” (Sloan-Kettering Institute for Cancer Research, priority 1978, dated 1980).

What was measured:
Assay type in all cases: cell-based
[1] = system: Influenza A USSR/90(H1 N1); assay: Anti-Influenza Activity (Hemadsorption Assay), Influenza A USSR/90
Procedure: Upon infection of a monolayer of tissue culture cells by influenza virus, the cell surface is altered so that guinea pig erythrocytes can be adsorbed to the cell surface. The number of foci of adsorbed cells (hemadsorption foci forming units HAFFU) is a quantitative measure of infectivity. The method is as follows.
The monolayers were subcultured in the following manner: The medium was poured off, and the monolayer washed two times with approximately 50 ml per wash of calcium and magnesium free phosphate buffered saline (PBS), (GIBCO #419) at a pH of 7.2. One ml of trypsin-EDTA solution (GIBCO #530L) containing 0.5 g trypsin (1:250) and 2.0 g EDTA/liter of Modified Puck's Saline A was added at 37° C. to each flask and dispersed over the monolayer with gentle shaking. The flasks were then placed in an incubator at 37° C. for approximately 3-5 minutes depending on the time required to dislodge the cells. Occasional shaking was required. Ten ml of planting medium was added to each flask and the cells dispersed by aspirating and expelling the suspension from the pipette. The contents of a series of flasks were pooled and the cells in the suspension were diluted with planting medium to 7-8.5×10^4 cells/ml. The planting medium consisted of the following composition: Minimum Essential Medium Eagles (MEM) with Earle's salts and HEPES buffer (GIBCO #236) supplemented by adding the following substances as specified to 87 ml of MEM:
The following day the medium was removed and replaced with fresh planting medium. The monolayers were used for experimentation when they reached a condition in which they were almost confluent (approximately 3-4 days).
When the Linbro tray HeLa cell cultures were ready for experimentation (see cells), the medium was decanted and 1 ml of maintenance medium (MEM with FCS reduced to 3%) containing the compound being tested at a given concentration was added to 4 replicate cultures within a tray.
A series of different drug concentrations ranging from 2.3 to 150 μg/ml were used. Maintenance medium alone was used for control cultures. After the administration of drug and control medium, 0.1 ml of the diluted viral suspension was added to experimental groups and infected control cultures. Saline alone was added to non-infected control cultures. The Linbro trays were then incubated at 37° C. for 18 hours, after which media in all groups was aspirated. Each culture was washed once with PBS. The saline was aspirated and 0.5 ml of a 0.4% v/v guinea pig red blood cell suspension in PBS was added to each culture well. The cultures remained at room temperature for 30 minutes after which the medium was decanted and culture washed […] with PBS to remove all but the specifically bound red cells. After the third wash, maintenance medium was added to all cultures.
A Howard Micrometer eyepiece (C8385) was inserted within the ocular of a Nikon inverted phase contrast microscope. Each culture was scanned with a 4× low paper objective and direct counts of hemadsorbed red cells were counted using the eyepiece grid as a field marker. Partial or complete fields were counted per experimental group depending on the resulting number and density of hemadsorbed cells in the infected control cultures. Magnification of 60× or 150× were chosen to obtain the best conditions for enumerating the hemadsorbed cells. Field factors were calculated for counting hemadsorption at 60× and 150×. At 60× magnification, total field count was calculated using a multiplication factor of 55.5. At 150× magnification the multiplication factor was 273. The multiplication factors of 55.5 and 273 represent the total number of fields at 60× and 150× magnifications, respectively. The number of fields counted ranged from 3 to 5 per well with 3 to 4 wells per treatment group employed (see raw data tables in results section for number of fields examined). Means and standard errors were calculated and the data was evaluated using student's t-test analysis.

influenza virus = assay: Anti-influenza activity (summary)
Mouse spleen cells = assay: Mitogen Induced (Con A) Mouse Lymphocyte Proliferation
Text: (§1) The following three assay procedures are used to evaluate the ability of the test substances to modulate the activity of several classes of cells in the immune system. In these systems it is possible to identify both immunopotentiating activity (evidence by an enhancement of the parameter examined) as well as immunosuppressant activity (evidenced by an inhibition of the parameter examined).
1. Mitogen--Induced Mouse Spleen Cell Assay--Mouse spleen cells contain a population of both B and T lymphocytes which can be stimulated by a number of foreign substances (e.g., plant mitogens such as Con A) to proliferate. This enhanced proliferation is an indication of enhanced cell mediated immunity. The method below describes the system used to evaluate test substances as immunopotentiators.
Concanavalin A (Calbiochem, La Jolla, Calif.), Lot #210073, lyophilized in NaCl, was prepared first as a 1% solution and diluted as a 2× concentration for each dilution (0.5, 1.0, 2.5 μg/ml).
Six to eight week old male Balb/c and C3 H inbred mice were obtained from the following sources: Flow Research Animals, Inc., Dublin, Va.; Charles River Breeding Laboratories, Wilmington, Mass.; Laboratory Supply Company, Indianapolis, Ind.; and Lionel Strong Foundation, San Diego, Calif.
Three to five mice were sacrificed by cervical dislocation and the spleens aseptically removed. Pooled spleens were minced and teased with sterile forceps; then strained through a double layer of nylon mesh. The cell suspension was washed once with 15 ml of RPMI 1640 supplemented with 5% fetal calf serum and antibiotics. Cells were cultured at a concentration of 10^6 cells/0.1 ml/well in micro-plates. Cultures were incubated in the presence or absence of mitogen in a humidified atmosphere containing 5% CO2 for 48 hours. The test compound was added to cultures at various concentrations concommitant with mitogen.
Proliferation was assayed by the degree of incorporation of 1.0 μCi of [^3 H] thymidine over an 18 hour incubation period. Cultures were harvested by a MASH unit (Otto Hiller Co., Madison, Wisconsin) and thymidine incorporation was assayed by liquid scintillation spectrometry. Cultures were performed in triplicate and data are expressed as means plus or minus the strandard error of the experimental means. Drug stimulation indices over control values were also calculated and portrayed graphically.

[2] = system: human peripheral blood lymphocytes; assay: Mitogen Induced (PHA) Human Lymphocyte Proliferation
[3] = system: guinea pig peritoneal macrophages; assay: Lymphokine Induced (MMF) Guinea Pig Macrophage Proliferation
Text: as §1
3. The macrophage represents a subpopulation of white blood cells which is an important component of the immune system in control of both cellular and humoral immunity. The assay system described below evaluates the substances studied as potentiators of macrophage function.
Phytohemagglutinin(PHA) (HA-17) was purchased from Burroughs Wellcome. A preparation containing Macrophage Mitogen Factor (MMF) and Macrophage Activating Factor (MAF) was prepared from antigen-stimulated immune lymph node lymphocytes (guinea pig) as previously described by Hadden et al, Nature 257, 483-485 (1975). […] The active fraction was employed in both the proliferation and activation assays.
Ficoll-hypaque purified human peripheral blood lymphocytes were prepared and PHA-induced lymphocyte proliferation was assayed by the incorporation of tritiated thymidine as described in Hadden et al, Cell. Immunol. 20, 98-103 (1975). Each compound was analyzed in the presence of suboptimal, optimal and supraoptimal concentrations of PHA (0.001, 0.01, 0.1 units/ml respectively). Paraffin oil-induced guinea pig peritoneal macrophages were prepared and incubated as monolayer culture (>98% pure macrophages). Lymphokine (MMF)-induced proliferation was assayed by the incorporation of triturated thymidine at 3 and 5 days of culture as described, Hadden et al, Nature 257, 483-485 (1975). Lymphokine (MAF)-induced macrophage activation to kill Listeria monocytogenes following 5 days of culture in the presence or absence of MAF was performed during a 6 hour period as described in Hadden and England, Immunopharmacology, pages 87-100 (Plenum Press, 1977). Phagocytosis was quantitated during a 20-minute exposure to Listeria monocytogenes by counting the number of macrophages containing bacteria and the number of bacteria per phagocytic cell on gram stained monolayers in Labtek chambers. Intracellular killing of bacteria was evaluated by counting the number of cells containing bacteria and the number of bacteria/cell 6 hours after the initial 20 minute exposure. Parallel experiments in which macrophages were lysed and intracellular bacteria were cultured confirm the validity of bacterial activity determined by this manner in this sytem. The drugs were employed in each of the three systems over serial log concentration range in triplicate in the presence and absence of mitogen or lymphokine. Each type of experiment was performed at least three times. Previous experiments indicate a parallelism of response to pharmacologic modulation in the proliferation and activation assays.

SMILES | DIP.PAcBA potentiation of Anti-Influenza activity (influenza virus) | Maximum Percent Change, Mitogen Induced (Con A) Mouse Lymph. Prolif. (Mouse spleen cells; 1.0-10) | Maximum Percent Change, Mitogen Induced (Con A) Mouse Lymph. Prolif. (Mouse spleen cells; 10-100) | Maximum Percent Change, Mitogen Induced (Con A) Mouse Lymph. Prolif. (Mouse spleen cells; .01-1.0) | Maximum Percent Change, Mitogen Induced (PHA) Human Lymph. Prolif. ([2]; 1.0-10) | Maximum Percent Change, Mitogen Induced (PHA) Human Lymph. Prolif. ([2]; 10-100) [%] | Maximum Percent Change, Mitogen Induced (PHA) Human Lymph. Prolif. ([2]; .01-1.0) [%] | other results
CC(O)Cn1cnc2c(=O)[nH]cnc21 (centres unmarked) [NPT 15447] | Yes | – | – | – | – | – | – | % Inhibition of Hemadsorption Foci ([1]; Conc. 10-100 μg/ml, listed as 15447): 26%; % Inhibition of Hemadsorption Foci ([1]; Conc. <10 μg/ml, listed as 15447): 10%; % Inhibition of Hemadsorption Foci ([1]; Conc. >100 μg/ml, listed as 15447): 34%
CC(CO)n1cnc2c(=O)[nH]cnc21 (centres unmarked) [NPT 15444] | Yes | – | – | – | – | – | – | % Inhibition of Hemadsorption Foci ([1]; Conc. 10-100 μg/ml, listed as 15444): 44%; % Inhibition of Hemadsorption Foci ([1]; Conc. >100 μg/ml, listed as 15444): 54%
CC(O)Cn1cnc2c(=O)[nH]cnc21 (centres unmarked) [NPT 15446, 9-(2-HYDROXY-1-PROPYL)HYDROXANTHINE] | – | 12% | 0% | 6% | 0% | 0 | 0 | % Inhibition of Hemadsorption Foci ([1]; Conc. 10-100 μg/ml, listed as 15446): 0%; % Inhibition of Hemadsorption Foci ([1]; Conc. <10 μg/ml, listed as 15446): 2%; % Inhibition of Hemadsorption Foci ([1]; Conc. >100 μg/ml, listed as 15446): 0%; Maximum Percent Change, Lymphokine Induced (MMF) Guinea Pig Mac. Prolif. ([3]; 1.0-10): 0%; Maximum Percent Change, Lymphokine Induced (MMF) Guinea Pig Mac. Prolif. ([3]; 10-100): 0%; Maximum Percent Change, Lymphokine Induced (MMF) Guinea Pig Mac. Prolif. ([3]; .01-1.0): 0%
CC(CO)n1cnc2c(Cl)ncnc21 (centres unmarked) [NPT 15423, 9-(1-HYDROXY-2-PROPANE)-6-CHLOROPURINE] | – | – | – | – | – | – | – | inhibition ([1]; Influenza A virus, Conc. 10-100 μg/ml, read-out: % Inhibition of Hemadsorption Foci): 13%
O=c1[nH]cnc2c1ncn2CCO [NPT 15425, 9-HYDROXYETHYL HYPOXANTHINE] | – | 0% | – | 11% | 0% | 0 | 100 | –
CC(CO)n1cnc2c(N)ncnc21 (centres unmarked) [NPT 15434] | Yes | – | – | – | – | – | – | % Inhibition of Hemadsorption Foci ([1]; Conc. 10-100 μg/ml): 41%; % Inhibition of Hemadsorption Foci ([1]; Conc. >100 μg/ml, listed as 15434): 62%
CC(CO)n1cnc2c(=O)[nH]cnc21 (centres unmarked) [NPT 15443, 9-(1-HYDROXY-2-PROPYL)HYPOXANTHINE] | – | +27% | +27% | +17% | +13% | 0 | 0 | % Inhibition of Hemadsorption Foci ([1]; Conc. 10-100 μg/ml, listed as 15443): 0%; % Inhibition of Hemadsorption Foci ([1]; Conc. >100 μg/ml, listed as 15443): 0%; Maximum Percent Change, Lymphokine Induced (MMF) Guinea Pig Mac. Prolif. ([3]; 1.0-10): 0%; Maximum Percent Change, Lymphokine Induced (MMF) Guinea Pig Mac. Prolif. ([3]; .01-1.0): +20%
CC(O)Cn1cnc2c(N)ncnc21 (centres unmarked) [NPT 15432] | Yes | – | – | – | – | – | – | % Inhibition of Hemadsorption Foci ([1]; Conc. 10-100 μg/ml, listed as 15432): 48%; % Inhibition of Hemadsorption Foci ([1]; Conc. >100 μg/ml, listed as 15432): 62%
CC(=O)Nc1ccc(C(=O)O)cc1.CC(O)CN(C)C [compound 15110, dimethylamino-2-propanol-p-acetamido benzoate, reference compound] | – | – | – | – | – | – | – | % Inhibition of Hemadsorption Foci ([1]; Conc. 10-100 μg/ml): 0%; % Inhibition of Hemadsorption Foci ([1]; Conc. <10 μg/ml): 0%; % Inhibition of Hemadsorption Foci ([1]; Conc. >100 μg/ml): 20%
CC(CO)n1cnc2c(N)ncnc21 (centres unmarked) [NPT 15433, 9-(1-HYDROXY-2-PROPYL)ADENINE] | – | -23% | -65% | +15% | 0% | -50 | 53 | % Inhibition of Hemadsorption Foci ([1]; Conc. >100 μg/ml, listed as 15433): 0%
CC(O)Cn1cnc2c(N)ncnc21 (centres unmarked) [NPT 15431, 9-(2-HYDROXY-1-PROPYL)ADENINE] | – | -27% | -47% | -15% | 0% | 0 | 0 | % Inhibition of Hemadsorption Foci ([1]; Conc. 10-100 μg/ml, listed as 15431): 22%; % Inhibition of Hemadsorption Foci ([1]; Conc. >100 μg/ml, listed as 15431): 0%
OCCn1cnc2c(S)ncnc21 [NPT 15437] | Yes | – | – | – | – | – | – | % Inhibition of Hemadsorption Foci ([1]; Conc. 10-100 μg/ml): 65%; % Inhibition of Hemadsorption Foci ([1]; Conc. >100 μg/ml, listed as 15437): 65%
